According to ChEMBL document CHEMBL1145265, “Chiral discrimination in binding of enantiomers of 2-(aminoalkoxy)-substituted 4-(2-thienyl)pyrimidines and 4,6-bis(2-thienyl)pyrimidines with duplex DNA” (Bioorg Med Chem Lett, 2005):

System: Calf thymus DNA
Assay: Ratio of binding constant of S-enantiomer and R-enantiomer towards sonicated calf thymus DNA
Assay type: nucleic-acid assay
Conditions: Bos taurus

| SMILES | Ratio |
| --- | --- |
| Cc1c(-c2cccs2)nc(OCC2CCCN2)nc1-c1cccs1 (configuration not stated) | 1.8 |
| CC(C)C(N)COc1nc(-c2cccs2)cc(-c2cccs2)n1 (configuration not stated) | 2.2 |
| NCCOc1nc(-c2cccs2)cc(-c2cccs2)n1 | 2.7 |
| c1csc(-c2cc(-c3cccs3)nc(OCC3CCCN3)n2)c1 (configuration not stated) | 2.4 |
| CC(N)COc1nc(-c2cccs2)cc(-c2cccs2)n1 (configuration not stated) | 1.2 |
| Cc1cnc(OCC(N)C(C)C)nc1-c1cccs1 (configuration not stated) | 1.6 |
| Cc1cnc(OCC2CCCN2)nc1-c1cccs1 (configuration not stated) | 1.4 |

Now from value to molecule:

| Ratio | SMILES |
| --- | --- |
| 1.5 | Cc1c(-c2cccs2)nc(OCC(N)C(C)C)nc1-c1cccs1 (configuration not stated) |
| 1.4 | CCC(N)COc1nc(-c2cccs2)cc(-c2cccs2)n1 (configuration not stated) |
| 1.6 | CCC(N)COc1nc(-c2cccs2)c(C)c(-c2cccs2)n1 (configuration not stated) |
| 2.2 | Cc1c(-c2cccs2)nc(OCCN)nc1-c1cccs1 |
| 1.5 | Cc1c(-c2cccs2)nc(OCC(C)N)nc1-c1cccs1 (configuration not stated) |
